Data reported in patent US8680114B2, “AKT protein kinase inhibitors” (Array Biopharma, Inc., priority 2003, dated 2014).

Target: full-length human recombinant active AKT-1 (Homo sapiens, UniProt P31749)
Assay: AKT-1 kinase assay (IMAP fluorescence polarization, phosphorylation of fluorescently-labeled peptide)
Format: biochemical
Conditions: AKT-1 IMAP assay, qualitative statement, values not given
From the text: The activity of the compounds described in the present invention may be determined by the following procedure: This procedure describes a kinase assay that measures the phosphorylation of a fluorescently-labeled peptide by full-length human recombinant active AKT-1 by fluorescent polarization using a commercially available IMAP kit.
The assay materials come from an IMAP AKT Assay Bulk Kit, product #R8059, from Molecular Devices, Sunnyvale, Calif. The kit materials include an IMAP Reaction Buffer (5×): The diluted 1×IMAP Reaction Buffer contains 10 mM Tris-HCl, pH 7.2, 10 mM MgCl2, 0.1% BSA, 0.05% NaN3. DTT is routinely added to a final concentration of 1 mM immediately prior to use.
Also included are IMAP Binding Buffer (5×), and IMAP Binding Reagent. The Binding Solution is prepared as a 1:400 dilution of IMAP Binding Reagent into 1×IMAP Binding Buffer.
Fluorescein-labeled AKT Substrate (Crosstide), having the sequence (F1)-GRPRTSSFAEG. A stock solution of 20 μM is made up in 1×IMAP Reaction Buffer.
The plates used include a Costar 3657 ([…] made of polypropylene and having a white, v-bottom) that is used for compound dilution and for preparing the compound-ATP mixture. The assay plate was the Packard ProxyPlate™-384 F.
The AKT-1 used was made from full-length, human recombinant AKT-1 that is activated with PDK1 and MAP kinase 2.
The assay procedure starts the preparation of stock solutions of compounds at 10 mM in DMSO. The stock solutions and the control compound are serially diluted 1:2 nine times into DMSO (10 μL of compound+10 μL of DMSO) to give 50× dilution series over the desired dosing range. […]
The assay is initiated by the addition of 2.5-μL aliquots of a solution containing 200 nM of fluorescently-labeled peptide substrate and 4 nM AKT-1. […] The reaction is then quenched by the addition of 15 μL of Binding Solution, centrifuged again and incubated for an additional 30 minutes at ambient temperature prior to reading on a Victor 1420 Multilabel HTS Counter configured to measure fluorescence polarization.

full-length human recombinant active AKT-1, sequence (P31749 whole entry): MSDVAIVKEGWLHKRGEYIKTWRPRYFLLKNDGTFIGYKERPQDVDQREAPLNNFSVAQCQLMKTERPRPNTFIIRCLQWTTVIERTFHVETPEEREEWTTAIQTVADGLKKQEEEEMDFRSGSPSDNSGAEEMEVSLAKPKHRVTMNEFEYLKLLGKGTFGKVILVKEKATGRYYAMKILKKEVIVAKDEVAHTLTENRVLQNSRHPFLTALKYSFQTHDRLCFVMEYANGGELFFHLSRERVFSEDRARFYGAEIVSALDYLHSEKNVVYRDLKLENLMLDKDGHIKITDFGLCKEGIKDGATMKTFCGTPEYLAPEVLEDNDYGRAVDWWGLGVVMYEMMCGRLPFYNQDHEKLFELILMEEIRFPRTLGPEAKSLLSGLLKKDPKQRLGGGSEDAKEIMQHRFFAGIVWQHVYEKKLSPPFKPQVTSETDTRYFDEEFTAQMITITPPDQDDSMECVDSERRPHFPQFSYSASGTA

activity for inhibiting AKT protein kinases | SMILES
showed activity | N[C@H](Cc1ccc(Cl)cc1)C(=O)N1CCN(c2ncnc3ccccc23)CC1 [Example 9, (2R)-2-Amino-3-(4-chlorophenyl)-1-(4-quinazolin-4-yl-piperazin-1-yl)-propan-1-one]
showed activity | N[C@H](Cc1ccc2ccccc2c1)C(=O)N1CCN(c2ncnc3ccccc23)CC1 [Example 11, (2R)-2-Amino-3-(2-naphthyl)-1-(4-quinazolin-4-yl-piperazin-1-yl)-propan-1-one]
showed activity | N[C@H](Cc1ccc(Cl)cc1)C(=O)N1CCN(c2ccnc3ccsc23)CC1 [Example 24, (2R)-2-amino-3-(4-chlorophenyl)-1-(4-thieno[3,2,b]pyridin-7-yl-piperazin-1-yl)-propan-1-one dihydochloride]
